Values joined by “and” are separate entries in the source; they are usually repeats but may differ in a detail not shown here. Identical values can stand only once. Like-named read-outs stand apart in the source and are kept apart here. Marks after values point to notes of the source that are not given here.
Assays:
LoVo xenografts [1] = experiment: In vivo antitumor efficacy with temozolomide, LoVo xenograft
Excerpt: In no combination study was antagonism observed.

A549 cells = experiment: Inhibition of cell growth and potentiation of temozolomide/topotecan, A549; format: cell-based; conditions: for GI50: Homo sapiens, 120 h, 5-day continuous exposure
SW620 cells = experiment: Inhibition of cell growth and potentiation of topotecan, SW620; format: cell-based, human
in vivo = conditions: CD-1, mouse, iv, 5 mg/kg
Excerpt: (§1) Each of the dose treatment groups was split into 2 cohort groups of 4 mice. The reason for cohort blood sampling is due to the blood volume limitations of the mouse species. Blood was drawn from each cohort every other pharmacokinetic sampling time. […] Three mice per dose group were euthanized at each of the collection time points. […] Blood from each rat was collected for each time point.

[2] = IV pharmacokinetics in rats; conditions: Wistar, rat, in vivo, 5 mg/kg
Excerpt: as §1

LoVo xenografts [3] = experiment: Tumor growth delay with X-irradiation, LoVo xenografts; format: in vivo
Protocol: The experimental endpoint was defined to be the time required for relative tumor volume to increase to four times the volume measured at the start of treatment (RTV4). Growth delays were calculated from the difference in time taken to achieve RTV4 (days) between IR/Formula 1 treated tumors and untreated controls.

[4] = IV pharmacokinetics, summary over all species; set-up: species or system CD-1 mice, Wistar rats, Beagle dogs, and cynomolgus monkeys; conditions: CD-1 (mouse), Wistar (rat), Beagle (dog), cynomolgus monkey, in vivo, IV dosing
Excerpt: as §1

[5] = human, in vivo
Protocol: This is an open-label, multi-center, dose-escalation study being conducted in 2 parts. Part 1 of the study was open to patients with advanced tumors.
The PK analysis was conducted on preliminary interim data using nominal collection times.

PARP = PARP inhibition in tumor biopsies of patients; format: in vivo, human
Protocol: Whole blood was collected into EDTA vacutainers and human PBLs were obtained by lymphopreparation according to the manufacturers instructions. Tumour biopsies were collected from the operating theatre in a sterile container and placed immediately on ice. Within 30 minutes tumour samples were snap frozen in liquid nitrogen and stored at −80° C. until homogenised for analysis. The specimen was defrosted on ice and the wet weight documented. For weights over 100 mg the tissue was homogenised using a Pro 2000 instrument (Pro Scientific Inc, Monroe, Conn., USA) in 3 volumes (i.e. 1 mg plus 3 μl isotonic buffer −7 mM Hepes, 26 mM KCl, 0.1 mM dextran, 0.4 mM EGTA, 0.5 mM MgCl2, 45 mM sucrose, pH 7.8), giving a homogenate with an overall dilution of 1 in 4. Where smaller samples had been obtained they were homogenised in 99 or 999 volumes, giving final dilutions of 1 in 100 and 1 in 1000, respectively. The homogenate was kept on ice throughout the process, and homogenisation was performed in 10 second bursts to prevent undue warming of the sample. Unless assayed on the day of homogenisation, samples were re-frozen to −80° C. and stored at this temperature until analysed. Prior to assay the samples were further diluted with isotonic buffer where necessary to give a final dilution of 1 in 1000.
Tumour homogenates were assayed in a similar manner; however, the homogenisation process introduces sufficient DNA damage to maximally stimulate PARP activity and oligonucleotide was not therefore required. The protein concentration of the homogenate was measured using the BCA protein assay and Titertek Multiscan MCC/340 plate reader. Results can be expressed in terms of pmol PAR former per mg protein or per mg tumour.
A pharmacodynamic assay for PARP activity and inhibition uses monoclonal antibodies to measure the amount of PAR polymer that is formed under set conditions in permeabilized peripheral blood lymphocytes and homogenized tumor samples. The quantity of polymer formed can be used as a correlate for PARP activity, whereby decreasing polymer formation correlates with degree of PARP inhibition. PARP activity is expressed as a percentage of baseline, and is calculated by dividing the amount of PAR polymer formed after infusion by the quantity formed before infusion. The feasibility of this assay was successfully tested in the 12 patients Phase 2 study of single-agent temozolomide in patients with metastatic melanoma.
Using a pharmacodynamic assay for PARP activity disclosed in Section C above, PARP inhibition in peripheral blood lymphocytes and tumor tissue was assessed in a Phase 1 clinical trial. As indicated above, enrollment in the Phase 1 Part 2 study has been restricted to patients having metastatic melanoma with biopsiable disease. All patients have been required to consent to pre-treatment and post-treatment biopsies such that PARP activity in the tumor can be evaluated.

[6] = A549, compound 0.4 μM (Table 6)

For CNCc1ccc(-c2[nH]c3cc(F)cc4c3c2CCNC4=O)cc1.O=C[C@H](O)[C@@H](O)[C@H](O)[C@H](O)C(=O)O [compound of formula 1 glucuronate salt], the body weight loss (LoVo xenografts [1]; LoVo experiment, any dose group) was “No body weight loss” and the “Enhancement (%)” value (LoVo xenografts [1]; LoVo, temozolomide 68 mg/kg oral + 0.5 mg/kg i.p. (glucuronate salt), once daily for 5 days) was 67% and 67^f %.
For CNCc1ccc(-c2[nH]c3cc(F)cc4c3c2CCNC4=O)cc1 [compound of formula 1, 8-fluoro-2-{4-[(methylamino)methyl]phenyl}-1,3,4,5-tetrahydro-6H-azepino[5,4,3-cd]indol-6-one], the “Topotecan PF50” value (A549 cells; A549, +0.4 μM compound of formula 1) was 1.6, the “Temozolomide PF50” value (A549 cells; A549, GI50 temozolomide alone/GI50 temozolomide+0.4 μM compound of formula 1) was 3.5 and the “PF50 (Temozolomide)” value (A549 cells; A549, compound 0.0005 μM) was 1. The “PF50 (Topotecan)” value (A549 cells; A549, compound 0.0005 μM) was 1.4, the “PF50 (Topotecan)” value (A549 cells; A549, compound 0.005 μM) was 1.8 and the “PF50 (Temozolomide)” value (A549 cells; A549, compound 0.005 μM (5 nM)) was 1.3. For the same compound, the “PF50 (Topotecan)” value (A549 cells; A549, compound 0.05 μM) was 2.1, the “PF50 (Temozolomide)” value (A549 cells; A549, compound 0.1 μM) was 2.6 and the “PF50 (Topotecan)” value (A549 cells; A549, compound 0.1 μM) was 2.2. For the same compound, the “PF50 (Temozolomide)” value (A549 cells; [6]) was 3.5, the “PF50 (Topotecan)” value (A549 cells; [6]) was 2.4 and the GI50 (A549 cells; A549, LoVo and SW620 cell lines, read-out: GI50 values, range over cell lines) was 7 to 12 µM. For the same compound, the GI50 (A549 cells; A549, read-out: GI50) was 7 µM, the “Topotecan PF50” value (SW620 cells; +0.4 μM compound of formula 1) was 2.6 and the GI50 (SW620 cells; Homo sapiens, SW-620, 120 h, 5-day continuous exposure) was 11 µM. It also gave an AUC(0-inf) (in vivo) of 620 ng·h/mL, a Vd (in vivo) of 10 L/kg and a clearance (in vivo) of 136 mL/min/kg. The half-life (in vivo) was 2.3 h, the AUC(0-inf) [2] was 990 ng·h/mL and the Vd [2] was 10 L/kg. For the same compound, the clearance [2] was 85 mL/min/kg, the half-life [2] was 2.8 h and the “Enhancement (%)” value (LoVo xenografts [3]; IR 2 Gy + 0.15 mg/kg i.p. 30 minutes before, daily × 5, 0.15 mg/kg) was 36% and 36^e %. For the same compound, the “Enhancement (%)” value (LoVo xenografts [3]; IR 2 Gy + 15 mg/kg i.p. 30 minutes before, daily × 5, 15 mg/kg) was 36% and 36^f %, the clearance [4] was 34 to 136 mL/min/kg and the half-life ([4]; read-out: terminal half-life) was 2 to 5 h. The Vd ([4]; read-out: volume of distribution) was 7 to 15 L/kg.
In the case of CNCc1ccc(-c2[nH]c3cc(F)cc4c3c2CCNC4=O)cc1.O=P(O)(O)O [Compound I, phosphate salt of 8-fluoro-2-{4-[(methylamino)methyl]phenyl}-1,3,4,5-tetrahydro-6H-azepino[5,4,3-cd]indol-6-one], the “mean total body clearance” value [5] is reported as 27 L/h, the “dose proportionality in AUC(0-24) and Cmax” value ([5]; iv) is reported as “linear dose proportionality” and the mean terminal half-life ([5]; iv) is reported as 6.2 to 10.7 h. It also gave an AUC0-24 ([5]; iv, 1 mg/m2) of 24.2 ng·h/mL, an AUCinf ([5]; iv, 1 mg/m2) of 24.2 ng·h/mL and an AUC0-24 ([5]; iv, 2 mg/m2) of 139.0 ng·h/mL. For the same compound, the AUCinf ([5]; iv, 2 mg/m2) was 167.0 ng·h/mL, the AUC0-24 ([5]; iv, 4 mg/m2) was 237.3 ng·h/mL and the AUCinf ([5]; iv, 4 mg/m2) was 286.6 ng·h/mL. The CL ([5]; iv, 4 mg/m2) was 26.0 L/h, the Cmax ([5]; iv, 4 mg/m2) was 168.9 ng/mL and the Vss ([5]; iv, 4 mg/m2) was 286.4 L. The t1/2 ([5]; iv, 4 mg/m2) was 10.7 h, the AUC0-24 ([5]; iv, 8 mg/m2) was 892.4 ng·h/mL and the AUCinf ([5]; iv, 8 mg/m2) was 1118.8 ng·h/mL. For the same compound, the CL ([5]; iv, 8 mg/m2) was 16.9 L/h, the Cmax ([5]; iv, 8 mg/m2) was 456.4 ng/mL and the Vss ([5]; iv, 8 mg/m2) was 151.7 L. It also gave a t1/2 ([5]; iv, 8 mg/m2) of 10.5 h, an AUC0-24 ([5]; iv, 12 mg/m2) of 1017.1 ng·h/mL and an AUCinf ([5]; iv, 12 mg/m2) of 1163.3 ng·h/mL. It also gave a CL ([5]; iv, 12 mg/m2) of 23.9 L/h, a Cmax ([5]; iv, 12 mg/m2) of 882.5 ng/mL and a Vss ([5]; iv, 12 mg/m2) of 270.1 L. The t1/2 ([5]; iv, 12 mg/m2) was 10.6 h, the “% PARP Inhibition” value (PARP; tumor biopsy 4-6 h, temozolomide 135 mg/m^2, Compound I 12 mg/m^2, day 1, individual patients) was 91% and the “% PARP Inhibition” value (PARP; tumor biopsy 4-6 h, temozolomide 135 mg/m^2, Compound I 12 mg/m^2, day 4, individual patients) was 85% and 50%. The “% PARP Inhibition” value (PARP; tumor biopsy 4-6 h, temozolomide 170 mg/m^2, Compound I 12 mg/m^2, day 1, individual patients) was 77% and 98%, the “% PARP Inhibition” value (PARP; tumor biopsy 4-6 h, temozolomide 170 mg/m^2, Compound I 12 mg/m^2, day 5, individual patients) was 93% and the “% PARP Inhibition” value (PARP; tumor biopsy 4-6 h, temozolomide 200 mg/m^2, Compound I 12 mg/m^2, day 1, individual patients) was 90% and 88%. For the same compound, the “% PARP Inhibition” value (PARP; tumor biopsy 4-6 h, temozolomide 200 mg/m^2, Compound I 18 mg/m^2, day 1, individual patients) was 98% and 94% and 89% and 97%, the “% PARP Inhibition” value (PARP; tumor biopsy 4-6 h post-treatment, temozolomide 100 mg/m^2, Compound I 4 mg/m^2, day 1, individual patients) was 79% and the “% PARP Inhibition” value (PARP; tumor biopsy at 24 hours post-treatment on day 1, temozolomide 200 mg/m^2, Compound I 18 mg/m^2) was 86%*.

From patent US20060074073A1, “Therapeutic combinations comprising poly (ADP-ribose) polymerases inhibitor” (AGOURON PHARMACEUTICALS, INC., priority 2004, published 2006)
